# Source: US7906300B2, “Methods for diagnosing an attention-deficit/Hyperactivity disorder” (PsychNostics, LLC, priority 2005, dated 2011)
# Assays:
# Format in all cases: cell-based, human
# [1] = tested on: whole blood cells; assay: Membrane potential ratio of whole blood cells, clinical trials (DiOC6(3) fluorescence); settings: open trial; bipolar patients; 100 mM sorbitol; FIG. 13
# [2] = tested on: lymphoblasts; assay: Membrane potential of lymphoblasts by DiOC6(3) fluorescence intensity ratio, with/without compound
# Text: Three groups of immortalized lymphoblast samples were obtained from the Human Genetic Mutant Cell Repository (Coriell Institute for Medical Research, Camden N.J.). The samples are shown in Table 4 below and included six from affected (bipolar I disorder) patients (A1 through A6), six from their siblings (S1 through S6), and six from unrelated normal control subjects matched by age and sex (N1 through N6).
# (§1) The membrane potentials of the bipolar I cells shown in Table 4 above (as well as in all other experiments, except where indicated) were measured using the following protocol. The cells cultured in the media described above were centrifuged at 210 g for 5 minutes at room temperature, then suspended in 3 ml of K^+-containing stock buffer (5 mM KCl, 4 mM NaHCO3, 5 mM HEPES, 134 mM NaCl, 2.3 mM CaCl2, and 5 mM glucose). The cells were counted and the desired number of cells were again suspended in the K^+-containing buffer. The membrane potentials were measured using 3,3′-dihexyloxacarbocyanine iodide DiOC6(3), a cell-permeant, voltage sensitive, green-fluorescent dye (Molecular Probes Inc. Eugene, Oreg. USA). […]
# (§2) A fluorescence spectrometer (F2500 Hitachi, Japan) was used for the measurement of the membrane potential by measuring the fluorescence intensity of DiOC6(3), which is directly proportional to the membrane potential. The intensity of fluorescence was measured at an excitation wavelength of 488 nm and an output wavelength of 540 nm. […]
# Membrane potential was expressed according to fluorescence intensity using the following equation: I=CV, wherein I is the fluorescence intensity of a lipophilic fluorescent dye DiOC6(3) being only one example of such a dye); V is the voltage or membrane potential; and C is a constant that can vary depending on a number of factors such as, but not limited to, temperature, lamp intensity, number of cells, concentration of the fluorescent dye, incubation time, and lipid composition of cells used. […]
# Membrane potentials were also measured in K^+-free buffer to enable comparison with membrane potentials in K^+-containing buffer. […]
# [3] = tested on: lymphoblasts; assay: Rate of drop in membrane potential (repolarization rate) of lymphoblasts, with/without compound; settings: 30 min, K+-free and K+-containing buffer
# Protocol: as §1, §2
# The rate of drop in membrane potential after incubation with the protein kinase C (PKC) activator, phorbol 12-myristate 13-acetate (PMA), was compared in affected cells to that of unaffected cells. The membrane potential of these cells was determined by measuring the fluorescence intensity as described above. […]
# [4] = tested on: whole blood cells; assay: Membrane potential ratio of whole blood cells, clinical trials (DiOC6(3) fluorescence); settings: for ratio of intensity in K+-free buffer with 30 μM ethacrynate to intensity in K+-containing buffer without ethacrynate, Median: plate reader
# Protocol: Because the volume of blood required to collect enough lymphocytes was beyond that permitted by the current protocol, the membrane potential of whole blood cells was determined. The volume of whole blood required was approximately 1 ml. The blood samples were kept on ice until they were stored at 4° C. All of the samples were tested within 48 hours.
# Whole blood samples drawn from patients and controls were suspended in K^+-containing buffer without ethacrynate and in K^+-free buffer with 30 μM ethacrynate or with 100 mM sorbitol. The fluorescent dye DiOC6(3) was added to both suspensions and incubated for 30 minutes. The cell suspensions loaded with the dye were centrifuged, drained and resuspended in the respective buffers. The fluorescence intensity was measured for 10 seconds and the ratio of the intensity in K^+-free buffer to the intensity in K^+-containing buffer was calculated.
# Whole blood samples drawn from patients and controls were suspended both in K^+-containing buffer and in K^+-free buffer with 30 μM ethacrynate or with 100 μM sorbitol. The fluorescent dye DiOC6(3) was added to both suspensions and incubated for 30 minutes. The cell suspensions loaded with the dye were centrifuged, drained and resuspended in the respective buffers. The fluorescence intensity was measured for 10 seconds and the ratio of the intensity in K^+-free buffer to the intensity in K^+-containing buffer was calculated.
# An individual patient's cell sample was tested as described herein and six to twelve ratios were calculated. These values were treated as a group and compared with a normal control group (negative control) and a bipolar group (positive control).
# (§3) Cells from control, bipolar I and bipolar II individuals were compared amongst each other as described herein. Whole blood samples drawn from patients and controls and aliquots were suspended either in K^+-containing buffer without ethacrynate, or in K^+-free buffer with 30 μM ethacrynate. The fluorescent dye DiOC6(3) was added to the suspensions and incubated for 30 minutes. The cell suspensions loaded with the dye were centrifuged, drained and resuspended in the respective buffers. The fluorescence intensity was measured for 10 seconds and the ratio of the intensity in K^+-free buffer to the intensity in K^+-containing buffer was calculated. Plate Reader (PerkinsElmer Victor V) was used for intensity measurements).
# as §3, with “ADHD” for “bipolar II”
smiles,measurement,setting,value
OC[C@@H](O)[C@@H](O)[C@H](O)[C@@H](O)CO [sorbitol],"fluorescence intensity ratio of bipolar cells with sorbitol in K+-free buffer, compared with ethacrynate",[1],comparable to the results with ethacrynate
CC[C@@]1([C@@H]2O[C@@H]([C@H]3O[C@@](O)(CO)[C@H](C)C[C@@H]3C)C[C@@H]2C)CC[C@H]([C@]2(C)CC[C@]3(C[C@H](O)[C@@H](C)[C@@H]([C@@H](C)[C@@H](OC)[C@H](C)C(=O)O)O3)O2)O1 [monensin],intensity ratio (membrane potential with monensin/without monensin) of affected cells compared with unaffected cells,"[2]; K+-free buffer, 10 μM monensin, 30 min, t-test P=0.009, FIG. 8",significantly lower
"CCCCCCCCCCCCCC(=O)O[C@@H]1[C@@H](C)[C@@]2(O)[C@@H](C=C(CO)C[C@]3(O)C(=O)C(C)=C[C@@H]23)[C@@H]2C(C)(C)[C@]12OC(C)=O [PMA, phorbol 12-myristate 13-acetate]",relative ratio of repolarization rates in affected cells compared with unaffected cells,"[3]; 2 μM PMA, P=0.046, FIG. 10",significantly lower
C=C(CC)C(=O)c1ccc(OCC(=O)O)c(Cl)c1Cl [ethacrynate],relative rate of repolarization in affected cells compared with unaffected cells,"[3]; 30 μM ethacrynate, P=0.041, FIG. 7",significantly higher
same,relative intensity ratio of affected cells compared with unaffected cells,"[2]; 30 μM ethacrynate, K+-free vs K+-containing buffer, t-test P=0.009, FIG. 5",significantly higher
same,intensity ratio (membrane potential with ethacrynate/without ethacrynate) of affected cells compared with unaffected cells,"[2]; K+-free buffer, 30 μM ethacrynate, t-test P=0.032, FIG. 6",significantly higher
same,"ratio of fluorescence intensity in K+-free buffer containing 30 μM ethacrynate to that in K+-containing buffer without ethacrynate, Mean","[4]; blind clinical trial, Controls",0.850
same,"ratio of fluorescence intensity in K+-free buffer containing 30 μM ethacrynate to that in K+-containing buffer without ethacrynate, Median","[4]; blind clinical trial, Controls",0.850
same,"ratio of fluorescence intensity in K+-free buffer containing 30 μM ethacrynate to that in K+-containing buffer without ethacrynate, Mean","[4]; blind clinical trial, Schizophr.",0.870
same,"ratio of fluorescence intensity in K+-free buffer containing 30 μM ethacrynate to that in K+-containing buffer without ethacrynate, Mean",[4]; individual Patient A (diagnosed bipolar),0.766
same,"ratio of fluorescence intensity in K+-free buffer containing 30 μM ethacrynate to that in K+-containing buffer without ethacrynate, Mean","[4]; open clinical trial, Bipolars",0.780
same,"ratio of intensity in K+-free buffer with 30 μM ethacrynate to intensity in K+-containing buffer without ethacrynate, Median",[4]; ADHD group,0.808
same,"ratio of intensity in K+-free buffer with 30 μM ethacrynate to intensity in K+-containing buffer without ethacrynate, Median",[4]; BPD I group,0.606
same,"ratio of intensity in K+-free buffer with 30 μM ethacrynate to intensity in K+-containing buffer without ethacrynate, Median",[4]; BPD II group,0.648
same,"ratio of intensity in K+-free buffer with 30 μM ethacrynate to intensity in K+-containing buffer without ethacrynate, Median",[4]; Negative (control) group,0.676
